{"source": "patent US9399028B2", "about": "“Treatment of drug resistant cancer” (ROCKEFELLER UNIVERSITY (THE), priority 2012, dated 2016)", "key": {"LXRβ": {"biological_target": "T1, LXRβ (Homo sapiens, UniProt P55055)", "T1 sequence (P55055 184-460 limits assumed)": "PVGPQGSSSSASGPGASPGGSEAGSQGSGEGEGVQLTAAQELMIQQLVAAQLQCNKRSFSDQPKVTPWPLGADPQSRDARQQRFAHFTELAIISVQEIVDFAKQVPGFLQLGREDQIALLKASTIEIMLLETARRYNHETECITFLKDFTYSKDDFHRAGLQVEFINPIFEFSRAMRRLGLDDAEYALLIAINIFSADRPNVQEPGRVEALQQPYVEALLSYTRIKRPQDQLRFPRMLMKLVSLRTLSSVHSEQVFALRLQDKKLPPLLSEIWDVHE", "T1 sequence (Q15788 676-700 partner limits assumed)": "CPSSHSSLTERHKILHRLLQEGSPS", "conditions": "LiSA, unit inferred; cited from earlier work"}, "[1]": {"system": "Tyr::CreER; B-RafV600E/+; Ptenlox/+ and Ptenlox/lox mice", "assay": "Genetically-initiated model of melanoma progression", "assay_type": "in vivo, mouse", "protocol": "The Tyr::CreER; B-Raf^V600E/+, Pten^lox/+/Tyr::CreER; B-Raf^V600E/+, Pten^lox/lox conditional model of melanoma progression was previously established and characterized by Dankort et al. (2009). Briefly, melanoma in these mice was induced at 6 weeks of age by intraperitoneally injecting 4-HT (H6278, 70% isomer, Sigma-Aldrich, St Louis, Mo.) at 25 mg/kg administered in peanut oil on three consecutive days. The 4-HT stock solution was prepared by dissolving it in 100% EtOH at 50 mg/mL by heating at 45° C. for 5 min and mixing. Once dissolved, the stock 4-HT solution was then diluted by 10-fold in peanut oil, yielding a 5 mg/mL 4-HT working solution that was then injected into mice. After the first 4-HT injection, mice were blindedly assigned to receive either a control diet or a diet supplemented with GW3965 (100 mg/kg). Mice were examined three times a week for the presence and progression of melanoma lesions. At day 35, dorsal skin samples were harvested from control-treated and GW3965-treated mice, fixed in 4% PFA and photographed at 10×. The percentage of pigmented melanoma lesion area out of the total skin area was quantified using ImageJ. For survival analyses, mice were monitored daily for melanoma progression and euthanized according to a standard body condition score, taking into account initial signs of moribund state and discomfort associated with the progression of melanoma burden. Post-mortem, the lungs, brains, and salivary glands were harvested and examined for the presence of macroscopic melanoma lesions."}, "[2]": {"system": "endothelial cells recruited into matrigel plugs", "assay": "In vivo matrigel plug assay", "set-up": "species or system mouse", "conditions": "VEGF 400 ng/mL + ApoE3 10 μg/mL", "protocol": "10 μg/mL recombinant human ApoE3 (4696, BioVision), 10 μg/mL BSA (A2153, Sigma Aldrich), or 400 ng/ml VEGF were mixed with matrigel (356231, BD Biosciences) as indicated. 400 μL of matrigel containing the indicated recombinant proteins were injected subcutaneously just above the ventral flank of immunocompromised NOD-SCID mice. Plugs were extracted on day 3 post-injection and fixed in 4% paraformaldehyde for 48 hours. Plugs were then paraffin-embedded and sectioned at 5-μm-thick increments. Plug cross-sectional sections were immunohistochemically stained using a primary antibody against the mouse endothelial antigen MECA-32 (Developmental Studies Hybridoma Bank, The University of Iowa, IA), detected by peroxidase-conjugated secondary antibody, and subsequently visualized by DAB oxidization. To quantify the extent of endothelial cell invasion into each matrigel plug, the number of endothelial cells was counted in 4-5 random fields for each plug, and the average number of endothelial cells per given plug area was calculated."}}, "note": "pEC50: −log10 of the molar value. Counter-ions that a name gives are not always drawn."}
{"molecule": "O=C(O)Cc1cccc(OCCCN(Cc2cccc(C(F)(F)F)c2Cl)CC(c2ccccc2)c2ccccc2)c1", "note": "[GW3965 2, 3-[3-[N-(2-Chloro-3-trifluoromethylbenzyl)-(2,2-diphenylethyl)amino]propyloxy]phenylacetic acid hydrochloride]", "values": [{"measurement": "pEC50", "setting": "LXRβ", "value": 7.52}, {"measurement": "overall survival times", "setting": "[1]; Ptenlox/+ and Ptenlox/lox mice, diet 100 mg/kg", "value": "significantly extended"}, {"measurement": "number of lymphatic metastases detected post-mortem", "setting": "[1]; Ptenlox/lox mice, salivary gland lymph nodes, 100 mg/kg", "value": "decrease"}, {"measurement": "tumor progression", "setting": "[1]; diet 100 mg/kg after melanoma initiation", "value": "attenuated"}]}
{"molecule": "recombinant human ApoE3: recombinant human ApoE3 (4696, BioVision)", "values": [{"measurement": "suppression of VEGF-induced endothelial recruitment in vivo into subcutaneous matrigel plugs", "setting": "[2]", "value": "greater than 40 fold"}]}
